“Also recorded” adds a separate entry of the source. Like-named read-outs stand apart in the source and are kept apart here.
Experiments:
[1] = Hydrolysis in the presence of human liver microsomes (HLM), with or without esterase inhibitors; assay type: in vitro ADME
Experimental: (§5) Pooled plasma/serum solutions (4 ml) were prepared to the correct strength by dilution of plasma with phosphate buffer pH 7.4 (e.g. for a 10% solution 0.4 ml of plasma/serum was added to 3.6 ml of phosphate buffer pH 7.4). Following equilibration of the plasma/serum sample at 37±0.5° C. 100 μl of a stock solution of test compound in acetonitrile (1×10^−4 M) was added and 250 μl aliquots were removed at specified time intervals. Samples were transferred to 1.5 ml Eppendorf tubes containing 500 μl of a 2% w/v solution of nSO4.7H2O (water:acetonitrile, 1:1). Tubes were vortexed for 2 minutes, then centrifuged at 10,000 rpm for 3 minutes at room temperature. Supernatant was aspirated off and analysed by HPLC. The concentration of test compound and metabolites were determined with reference to calibration curves run on that day in the same concentration range and under the same experimental conditions. […] The metabolic fate of the esters under these conditions was also determined by RPHPLC by measuring the concentration of drug and metabolites in the medium as a function of time. […] The BuChE activity of plasma and microsomal samples was determined using the Ellman assay (Ellman et al., 1964). […]

[2] = assay type: in vitro ADME; settings: 0.1 mM, pH 7.4
Experimental: (§1) Pooled plasma/serum solutions (4 ml) were prepared to the correct strength by dilution of plasma with phosphate buffer pH 7.4 (e.g. for a 10% solution 0.4 ml of plasma/serum was added to 3.6 ml of phosphate buffer pH 7.4). Following equilibration of the plasma/serum sample at 37±0.5° C. 100 μl of a stock solution of test compound in acetonitrile (1×10^−4 M) was added and 250 μl aliquots were removed at specified time intervals. Samples were transferred to 1.5 ml Eppendorf tubes containing 500 μl of a 2% w/v solution of nSO4.7H2O (water:acetonitrile, 1:1). Tubes were vortexed for 2 minutes, then centrifuged at 10,000 rpm for 3 minutes at room temperature. Supernatant was aspirated off and analysed by HPLC. The concentration of test compound and metabolites were determined with reference to calibration curves run on that day in the same concentration range and under the same experimental conditions. In order to mimic conditions during the first passage of the drugs after intestinal absorption selected compounds were incubated in phosphate buffer at 37° C. in the presence of microsomes from human liver (HLM) and intestinal epithelium (HIM). The metabolic fate of the esters under these conditions was also determined by RPHPLC by measuring the concentration of drug and metabolites in the medium as a function of time. The identity of participating enzymes was confirmed by using purified enzyme in the case of plasma (BuChE) and by repeating the hydrolysis experiments in the presence of esterase specific inhibitors—isoOMPA for BuChE and BNPP for carboxylesterase. The BuChE activity of plasma and microsomal samples was determined using the Ellman assay (Ellman et al., 1964).
Qualitative hydrolysis screening of Is-2-aspirinate-5-salicylate 2 (0.1 mM) was studied using guinea pig, hamster, rabbit and monkey plasma. The purpose of this test was to determine a suitable species for biological testing and preclinical development. The results were also expected to confirm the role of the human enzymes already identified because these are variously distributed in laboratory animals.

[3] = Hydrolysis in the presence of human intestinal microsomes (HIM), with or without esterase inhibitors; assay type: in vitro ADME; settings: 0.1 mM, pH 7.4
Experimental: as §5

[4] = system: human platelet aggregation to arachidonic acid; assay: Human platelet aggregation to arachidonic acid in platelet rich plasma; assay type: cell-based
Experimental: (§2) Blood was collected from healthy volunteers who had not taken any drugs known to affect platelet function for at least 14 days prior to the study. Platelet rich plasma (PRP) and washed platelet suspensions (2.5×10^8 platelets/ml) were prepared from blood as previously described.
(§3) Platelet aggregation was measured by light aggregometry as previously described. Briefly, PRP and washed platelet samples (2.5×10^8/ml) were placed in a whole blood ionized calcium lumi-aggregometer (Chronolog Corp., Havertown, Pa., U.S.A), and (BIO/DATA CORPORATION) and incubated for 10 min at 37° C., with stirring at 900 r.p.m., prior to the addition of aggregating agents. Aggregation was initiated by the addition of agonists, and monitored by Aggro-Link software for at least 6 min. For experiments using inhibitors, aggregation was initiated after 10 min preincubation with these compounds

[5] = Hydrolysis in rabbit plasma; assay type: in vitro ADME
Experimental: as §1, with “In order to mimic conditions during the first passage of the drugs after intestinal absorption selected compounds were incubated in phosphate buffer at 37° C. in the presence of microsomes from human liver (HLM) and intestinal epithelium (HIM).” left out, “The identity of participating enzymes was confirmed by using purified enzyme in the case of plasma (BuChE) and by repeating the hydrolysis experiments in the presence of esterase specific inhibitors—isoOMPA for BuChE and BNPP for carboxylesterase.” left out, “1964). […]” for “1964).”

[6] = system: platelet aggregation in human whole blood; assay: Whole blood aggregation studies (impedance method); assay type: cell-based
Experimental: A 500 μl aliquot of blood was mixed with 500 μl of physiological saline and allowed to incubate at 37° C. for 10 mins in the incubation well of a Chrono-Log Whole Blood Aggregometer model 591/592. The sample was then transferred to the assay well, baseline was established and appropriate volume of reagent as above was added. Aggregation was monitored over 6 mins with impedance output recorded on a chart recorder. When testing inhibitors whole blood was pre-incubated with appropriate concentrations of inhibitor in DMSO at 37° C. for a specified length of time before adding the stimulant (10 mins with stirring). Three different aggregating agents, AA (0.5 mM), ADP (10 μM) and Collagen (5 μg/ml) were used. […] DMSO in high concentrations (above 0.25%) can induce a concentration dependent change in platelet cytoplasmic ionised calcium. Before each experiment a control was run using PRP to obtain normal aggregating responses. A sample was also incubated for 10 min at 37° C. with 10 μl DMSO to ensure it was having no inhibitory effect on the aggregation response.

[7] = biological target: T1, purified human serum BuChE (Homo sapiens, UniProt P06276); assay: Hydrolysis by purified human serum butyrylcholinesterase; assay type: in vitro ADME; settings: purified butyrylcholinesterase
T1 construct: Purified human serum butyrylcholinesterase (EC 3.1.1.8); purchased Sigma-Aldrich; host or cells: human serum
T1 sequence (P06276 29-602): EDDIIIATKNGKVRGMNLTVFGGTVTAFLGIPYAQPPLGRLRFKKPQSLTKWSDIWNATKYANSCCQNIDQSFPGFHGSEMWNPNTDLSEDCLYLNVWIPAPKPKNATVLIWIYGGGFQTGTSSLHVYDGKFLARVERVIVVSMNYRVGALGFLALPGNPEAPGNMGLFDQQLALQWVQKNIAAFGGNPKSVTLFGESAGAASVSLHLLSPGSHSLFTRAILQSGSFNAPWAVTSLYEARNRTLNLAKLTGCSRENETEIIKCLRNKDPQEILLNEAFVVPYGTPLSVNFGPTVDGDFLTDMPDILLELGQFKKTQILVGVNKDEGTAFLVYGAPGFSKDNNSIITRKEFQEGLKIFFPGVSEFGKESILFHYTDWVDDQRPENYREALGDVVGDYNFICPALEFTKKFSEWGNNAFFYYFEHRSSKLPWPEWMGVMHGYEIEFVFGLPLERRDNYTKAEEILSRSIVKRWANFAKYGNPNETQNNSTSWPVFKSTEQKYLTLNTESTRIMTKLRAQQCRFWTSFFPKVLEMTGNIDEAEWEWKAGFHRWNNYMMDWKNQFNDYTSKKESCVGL
Experimental: as §1

[8] = system: TXB2 synthesis; assay: Inhibition of TXB2 synthesis in clotting whole blood (ELISA); assay type: cell-based; settings: 1 hour at 37° C., listed as ISAS
Experimental: TXA2 is highly evanescent and unsuitable for direct measurement but its metabolite TXB2 is generally believed to provide a useful index of the parent. […] The samples were then centrifuged. Serum was collected and TXB2 was measured using enzyme linked immunosorbent assay (ELISA) kits obtained from Cayman Chemicals.

[9] = system: typical digestive proteases; assay: Stability in the presence of digestive proteases; assay type: in vitro ADME
[10] = in vitro; settings: human, plasma, pH 7.4
[11] = system: collagen-induced human platelet aggregation; assay: Collagen-induced human platelet aggregation in vitro; assay type: cell-based; settings: listed as ISAS
Experimental: as §2, §3
(§4) Collagen at different concentrations (3-5 ug/ml) was also used to induce platelet aggregation. The submaximal concentrations of agonists, i.e. the concentrations that gave approximately 95% of the maximal aggregation were used to study the effects of inhibitors of aggregation. Results were expressed in percent changes in maximal light transmission, with 100% representing light transmission of platelet medium alone.

[12] = system: ADP-induced platelet aggregation; assay: ADP-induced platelet aggregation in PRP; assay type: cell-based, human
Experimental: as §2, §3, §4

[13] = system: esterases found in CACO-2 cells; assay: Stability towards esterases found in CACO-2 cells; assay type: in vitro ADME
[14] = Hydrolysis in human blood; assay type: in vitro ADME
[15] = system: MDA synthesis; assay: MDA synthesis by washed platelets; assay type: cell-based

CC(=O)Oc1ccccc1C(=O)O[C@H]1CO[C@H]2[C@@H]1OC[C@H]2OC(=O)c1ccccc1O [Compound 2, Isosorbide-2-aspirinate-5-salicylate]
Drug disappearance ([1]; HLM/isoOMPA (10 uM), conc drug […]): 10 min | Drug disappearance ([1]; human, 0.1 mM, pH 7.4): 10 min | Drug disappearance time ([2]; guinea pig, 1 hr): present after 1 hr | Drug disappearance time ([2]; hamster): 20 min | Drug disappearance time ([2]; monkey): 5 min | Drug disappearance [3]: 5 min | Drug disappearance: drug left ([3]; 60 min): 9.4 μM left | potency relative to aspirin, inhibition of arachidonic acid-induced human platelet aggregation [4]: significantly more potent than aspirin | Drug disappearance ([5]; 50% Rabbit Plasma, conc drug 0.1 mM): 20 min | Drug disappearance time ([5]; rabbit, 0.1 mM, pH 7.4): 10 min | IC50 ([6]; Homo sapiens, Platelet, arachidonic acid, impedance method, read-out: IC50, platelet aggregation towards arachidonic acid in human whole blood): 17 µM | potency in inhibition of platelet aggregation in whole blood ([6]; all of the aggregatory stimuli: AA (0.5 mM), ADP (10 μM), Collagen (5 μg/ml)): significantly greater potency than aspirin or ISDA | conversion to aspirin in the presence of purified butyrylcholinesterase [7]: almost complete conversion to aspirin | inhibition of TXB2 (TXA2) synthesis [8]: effective in preventing the TXA2 synthesis; also recorded: significantly more potent than aspirin | stability in the presence of typical digestive proteases [9]: stable | half-life at 2.4 µM [10]: 2 min | potency relative to aspirin, inhibition of collagen-induced human platelet aggregation [11]: significantly more potent than aspirin; also recorded: significantly more potent than ASA | potency relative to aspirin, inhibition of ADP-induced platelet aggregation [12]: significantly more potent than aspirin | stability towards esterases found in CACO-2 cells [13]: stable | half-life [14]: < 2 min | MDA synthesis by washed platelets [15]: effective
